Measured values: ChEMBL document CHEMBL3813627, “Preventive effect of a novel diosgenin derivative on arterial and venous thrombosis in vivo” (Bioorg Med Chem Lett, 2016)
Active and inactive are the calls of the source. The calls are words filed in the database; no cut-off is given here.

Experiments:
[1] = system: Mus musculus; test: Toxicity in Balb/c mouse assessed as white blood cell count at 92.1 mg/kg, ig bid for 7 days (reference value: 7.7 +/- 0.65 10^9/L); type: organism-based; details: in vivo, po, 168 h
[2] = system: Rattus norvegicus; test: Anticoagulant activity in platelet-rich plasma isolated from Sprague-Dawley rat assessed as activated partial thromboplastin time at 64 mg/kg, ig bid for 7 days (reference value: 17.6 +/- 0.92 secs); type: functional
[3] = system: Rattus norvegicus; test: Anti-thrombotic activity in Sprague-Dawley rat model of FeCl3-induced arterial thrombosis assessed as arterial thrombus weight at 64 mg/kg, ig bid for 7 days (reference value: 12.94 +/- 0.7 mg); type: functional
[4] = system: Rattus norvegicus; test: Anti-thrombotic activity in Sprague-Dawley rat model of FeCl3-induced arterial thrombosis assessed as arterial thrombus length at 64 mg/kg, ig bid for 7 days by vernier caliper method (reference value: 10.5 +/- 0.83 mm); type: functional
[5] = system: Mus musculus; test: Hepatotoxicity in Balb/c mouse assessed as changes in serum GOT level at 92.1 to 575.5 mg/kg, po administered as single dose for 7 days; type: toxicity, organism-based; details: in vivo, 168 h
[6] = system: Mus musculus; test: Toxicity in Balb/c mouse assessed as platelet count at 92.1 mg/kg, ig bid for 7 days (reference value: 802 +/- 74 10^9/L); type: organism-based; details: in vivo, po, 168 h
[7] = system: Mus musculus; test: Hepatotoxicity in Balb/c mouse assessed as histopathological changes at 92.1 to 575.5 mg/kg, po administered as single dose for 7 days by hematoxylin and eosin staining based microscopic analysis; type: toxicity, organism-based; details: in vivo, 168 h
[8] = species: Rattus norvegicus; test: Gastric toxicity in Sprague-Dawley rat assessed as fibrotic changes treated for 49 days by hematoxylin and eosin staining based microscopic analysis; type: organism-based; details: in vivo, 1176 h
[9] = system: Rattus norvegicus; test: Antiplatelet activity in platelet-rich plasma isolated from ig dosed Sprague-Dawley rat assessed as inhibition of ADP-induced platelet aggregation administered bid for 7 days measured for 5 mins by light transmission aggregometry; type: functional, organism-based
[10] = system: Rattus norvegicus; test: Anticoagulant activity in platelet-rich plasma isolated from Sprague-Dawley rat assessed as thrombin time at 64 mg/kg, ig bid for 7 days (reference value: 47.1 +/- 3.1 secs); type: functional
[11] = system: Rattus norvegicus; test: Anticoagulant activity in platelet-rich plasma isolated from Sprague-Dawley rat assessed as prothrombin time at 64 mg/kg, ig bid for 7 days (reference value: 11.6 +/- 0.98 secs); type: functional
[12] = system: Mus musculus; test: Toxicity in Balb/c mouse assessed as mortality at 92.1 to 575.5 mg/kg, po administered as single dose for 7 days; type: organism-based; details: in vivo, 168 h
[13] = system: Mus musculus; test: Toxicity in Balb/c mouse assessed as hematocrit at 92.1 mg/kg, ig bid for 7 days (reference value: 40.5 +/- 3.5 %); type: organism-based; details: in vivo, po, 168 h
[14] = system: Rattus norvegicus; test: In vivo activation of coagulation factor12 in Sprague-Dawley rat at 64 mg/kg, ig bid for 7 days by automated coagulometry; type: functional, organism-based
[15] = system: Rattus norvegicus; test: Anti-thrombotic activity in Sprague-Dawley rat model of FeCl3-induced venous thrombosis assessed as venous thrombus length at 64 mg/kg, ig bid for 7 days by vernier caliper method (reference value: 10.66 +/- 0.81 mm); type: functional
[16] = system: Rattus norvegicus; test: In vivo activation of coagulation factor10 in Sprague-Dawley rat at 64 mg/kg, ig bid for 7 days by automated coagulometry; type: functional, organism-based
[17] = system: Rattus norvegicus; test: Anti-thrombotic activity in Sprague-Dawley rat model of FeCl3-induced venous thrombosis assessed as venous thrombus weight at 64 mg/kg, ig bid for 7 days (reference value: 17.1 +/- 0.69 mg); type: functional
[18] = species: Rattus norvegicus; test: Gastric toxicity in Sprague-Dawley rat assessed as angiogenesis treated for 49 days by hematoxylin and eosin staining based microscopic analysis; type: organism-based; details: in vivo, 1176 h
[19] = system: Mus musculus; test: Toxicity in Balb/c mouse assessed as red blood cell count at 92.1 mg/kg, ig bid for 7 days (reference value: 7.55 +/- 0.59 10^12/L); type: organism-based; details: in vivo, po, 168 h
[20] = system: Rattus norvegicus; test: Antiplatelet activity in platelet-rich plasma isolated from Sprague-Dawley rat assessed as ADP-induced platelet aggregation at 64 mg/kg, ig bid for 7 days measured for 5 mins by light transmission aggregometry (reference value: 57.57 +/- 2.43 %); type: functional
[21] = system: Rattus norvegicus; test: In vivo activation of coagulation factor9 in Sprague-Dawley rat at 64 mg/kg, ig bid for 7 days by automated coagulometry; type: functional, organism-based
[22] = species: Rattus norvegicus; test: Gastric toxicity in Sprague-Dawley rat assessed as gastric mucosal damage score treated for 49 days by hematoxylin and eosin staining based microscopic analysis; type: organism-based, Gastric mucosa; details: in vivo, 1176 h
[23] = system: Rattus norvegicus; test: In vivo activation of coagulation factor11 in Sprague-Dawley rat at 64 mg/kg, ig bid for 7 days by automated coagulometry; type: functional, organism-based
[24] = system: Rattus norvegicus; test: In vivo activation of coagulation factor8 in Sprague-Dawley rat at 64 mg/kg, ig bid for 7 days by automated coagulometry; type: functional, organism-based
[25] = system: Mus musculus; test: Toxicity in Balb/c mouse assessed as tail bleeding time at 92.1 mg/kg, ig bid for 7 days (reference value: 186 +/- 12 sec); type: organism-based; details: in vivo, po
[26] = system: Mus musculus; test: Hepatotoxicity in Balb/c mouse assessed as changes in serum GPT level at 92.1 to 575.5 mg/kg, po administered as single dose for 7 days; type: toxicity, organism-based; details: in vivo, 168 h
[27] = system: Mus musculus; test: Toxicity in Balb/c mouse assessed as hemoglobin count at 92.1 mg/kg, ig bid for 7 days (reference value: 143 +/- 11.9 g/L); type: organism-based; details: in vivo, po, 168 h

`CC(=O)Oc1ccccc1C(=O)O[C@H]1CC[C@@]2(C)C(=CC[C@H]3[C@@H]4C[C@@H]5O[C@]6(CC[C@@H](C)CO6)[C@@H](C)[C@@H]5[C@@]4(C)CC[C@@H]32)C1` showed an Activity [1] of 7.82 ×10⁹ /L, an APTT [2] of 22.6 s and an Activity [3] of 6.34 mg. For the same compound, the Activity [4] was 5 mm, the Activity [5] was “Non-toxic” and the Activity [6] was 790 ×10⁹ /L. The Activity [7] was “Non-toxic”, the Activity [8] was “Non-toxic” and the inhibition [9] was “Dose-dependent effect”. For the same compound, the TT [10] was 46.7 s, the PT [11] was 11.4 s and the Activity [12] was “Non-toxic”. For the same compound, the Activity [13] was 38.9%, the Activity [14] was “inactive” and the Activity [15] was 5.83 mm. The Activity [16] was “inactive”, the Activity [17] was 9.12 mg and the Activity [18] was “Non-toxic”. The Activity [19] was 7.05 ×10¹² /L, the Activity [20] was 29.42% and the Activity [21] was “inactive”. The UI [22] was 0.66, the Activity [23] was “inactive” and the Activity [24] was “Active”. The Time [25] was 676 s, the Activity [26] was “Non-toxic” and the Activity [27] was 133 g/L.
